One assay relates to MCF-7ADR. Description: Radiosensitizing activity of MDM2 antagonistic compounds, MCF-7ADR cells. Type of assay: cell-based, human. The note with it: MCF-7 ADR cells (mutant p53, high GST content). The procedure:
Biologic assay for radiosensitizing activity of MDM2 antagonistic compounds: Human tumor cell lines containing wild-type p53 and low levels of GST, such as MCF7 (breast carcinoma) or mutant p53 and a high GST content, such as MCF7 ADR (adriamycin-resistant breast carcinoma) are cultivated in RPMI medium, supplemented with 10% fetal calf serum to a semi-confluent state.
In order to determine the radiosensitizing activity of selected compounds on these cells a minimal toxic dose was determined as 2Gy with a ^137Cesium source at room temperature. Following irradiation of monolayer cells in exponential growth phase with 2 Gy, cells were incubated with various concentrations of the selected compounds for 2-6 h. Cells were trypsinized and seeded in appropriate dilutions into 6 well plates. Surviving cells were trypsinized after 12-13 days and cell number was determined by staining with trypane blue for living/dead cells. The protocol was established according to Khil et al., 1996, Int. J. Rad. Oncol. Biol. Phys. 34, 375-380.

The next assay has as its target HT29 cytosolic GST (Homo sapiens, UniProt P09211). Description: Spectrophotometric GST activity analysis. Type of assay: biochemical. The following applies: inhibition of GST activity in HT29 cells. The procedure: GST catalyzes the conjugation of CDNB with glutathione and results in a CDNB-glutathione product with a strong molar absorption at 340 nm. The change of absorption is monitored for 5 min.
1 x 10^6 cells are collected and washed once with ice-cold phosphate-buffered saline at 1000 rpm for 10 min at 4°C. Cell pellets are resuspended in 200 µl ice-cold phosphate-buffered saline, and are sonicated for 2 min on ice. The sonicate is then centrifuged at 11750 g, 4°C for 15 min in an Eppendorf Centrifuge, and the supernatant is assayed for GST activity.

SMILES strings stand for the structures.

Sequence of HT29 cytosolic GST (P09211 2-210): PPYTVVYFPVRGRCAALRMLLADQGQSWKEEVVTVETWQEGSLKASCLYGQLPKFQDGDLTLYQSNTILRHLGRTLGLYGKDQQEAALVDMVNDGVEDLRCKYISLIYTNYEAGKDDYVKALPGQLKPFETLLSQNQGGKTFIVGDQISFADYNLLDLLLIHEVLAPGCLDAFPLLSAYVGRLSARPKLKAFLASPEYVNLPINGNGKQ

For `O=C(O)COc1ccc(C(=O)/C=C/c2ccc(Cl)c(Cl)c2)cc1` [LSM 83177, 3,4-dichloro-4'-(carboxymethoxy)chalcone], the radiosensitization entry in the assay with MCF-7ADR is “leads to a radiosensitization in MCF-7 ADR cells”. Moreover, at HT29 cytosolic GST, the IC-50 is on record as 7,7 µg/ml.

For `C=C(CC)C(=O)c1ccc(OCC(=O)O)c(Cl)c1Cl` [ethacrynic acid, reference compound], in the assay with MCF-7ADR, the radiosensitization result is “does not mediate any radiosensitization”.
